Laboratory results reported in patent US20150174209A1, “INSULIN-PRAMLINTIDE COMPOSITIONS AND METHODS FOR MAKING AND USING THEM” (AMYLIN PHARMACEUTICALS. LLC, priority 2012, published 2015).

Legend:
[1] = tested on: patients with type 1 diabetes mellitus; conditions: in vivo, sc; cited from earlier work
type 1 diabetic subjects = experiment: Identification of the gastro-intestinal tract (oral glucose absorption) model on Ra meal data of the Woerle T1D database; parameters: species or system human; conditions: 30 μg pramlintide s.c. with meal containing 50 g glucose, 15 type 1 diabetic subjects
Description: The database was made up of 15 type 1 diabetic subjects (8 men and 7 women, 37±2 years of age, body weight 76±3 kg) (this is a database for each individual patient participating in the study published in Woerle et al. (December, 2008) Diabetes Care 31(12): 2325-2331, in which pramlintide was given to TI patients and labeled glucose appearance from meal to blood was measured; Woerle reported the effect of pramlintide on gastric emptying and thus glucose appearance in the blood after a meal in patients with type 1 diabetes). “Ra meal data” means the “glucose rate of appearance (Ra) of ingested glucose”; “Ra meal” refers to measurement in response to a meal (ingested), versus after say an intraduodenal injection of glucose.
Subjects were studied on 2 occasions: hyperglycemia with (PRAM) and without (PBO) 30 μg of pramlintide (Amylin Pharmaceuticals, San Diego, Calif.), injected subcutaneously in the lower abdominal wall with the standardized meal containing 50 g of glucose. Over the initial 90 min of the postprandial period, blood samples were taken at 15 min intervals and thereafter at 30-min intervals until completion of the experiment at 330 min.
The model has been numerically identified on placebo Ra meal data using nonlinear weighted least-squares estimator. Identification on pramlintide Ra meal data have required the use of Bayesian estimator in order to achieve a precise estimates of model parameters.
Identification of the gastro-intestinal tract model on Woerle Ra meal data has provided individual parameters estimates for the 15 T1D subjects in presence or absence of pramlintide. Then individual variation for each parameter has been calculated as: […]
We reduced the standard deviations of the variation of the parameters to the 30% of their values due to the small number of subjects available:
Then 100 virtual parameters variations were generated from the distribution: […]

healthy subjects = experiment: Glucose and C-peptide minimal models and minimal model of gastrointestinal absorption on aggregated Woerle data; parameters: species or system human
From the text: The data published in Woerle et al. (December, 2008) Diabetes Care 31(12): 2325-2331, where a dual tracer approach was used in healthy subjects to estimate the rate of appearance of glucose during the meal and hepatic glucose production during placebo/pramlintide were used in an aggregated fashion (individual data not available, FIG. 13A). […] Subsequently, the minimal model of gastrointestinal absorption (FIG. 37) was used to quantify the changes of the rate of appearance of ingested glucose due to pramlintide. […] This finding was incorporated into the Healthy State Simulator and predictions were successfully tested against Woerle et al data FIG. 38. We also successfully tested the prediction of 2 h postprandial glucose of the Type 1 Diabetes Simulator (illustrated in FIG. 18) (incorporating the new kmax) against the data by Kovatchev B P, et al., Pramlintide reduces the risks associated with glucose variability in type 1 diabetes. Diabetes Technol Ther. 2008 October; 10(5):391-6. The new model was finally incorporated into our model predictive control algorithm and in silico experiment on the Type 1 diabetes.

[2] = Chemical stability of pramlintide and human insulin co-formulated in SYMLIN placebo buffer pH 4.0 (RP-HPLC purity; FIGS. 35, 36); conditions: for stability in co-formulation: 25 degrees Centigrade, SYMLIN placebo buffer pH 4.0, 13 week study
Description: Purity was determined via RP-HPLC and is normalized to time=0 purity.

[3] = pH 2-3; 4C; cited from earlier work
[4] = cited from earlier work

Row | Molecule | effect of mixing with short- or long-acting insulin in the same syringe on pharmacodynamics of glucose and pharmacokinetics of insulin or pramlintide [1] | b (model parameter estimate, mean) (type 1 diabetic subjects) | c (model parameter estimate, mean) (type 1 diabetic subjects) | kabs (model parameter estimate, mean) (type 1 diabetic subjects) | kmin (model parameter estimate, mean) (type 1 diabetic subjects) | kmax (model parameter estimate, mean) (type 1 diabetic subjects; Bayesian estimator) | effect on insulin sensitivity and beta-cell function (healthy subjects; glucose and C-peptide minimal models) | decrease of parameter kmax (maximum gastric emptying) (healthy subjects; minimal model of gastrointestinal absorption) | purity loss during storage ([2]; 25 degrees C, insulin in co-formulations) [%] | stability in co-formulation [2] | stability in co-formulation ([2]; listed as insulin) | formation of monodesamido-(A21)-insulin [3] | absorption after subcutaneous injection [4] [min] | duration of action ([4]; subcutaneous injection) [h]
1 | CC[C@H](C)[C@H](NC(=O)[C@@H]1CCCN1C(=O)CNC(=O)[C@H](Cc1ccccc1)NC(=O)[C@H](CC(N)=O)NC(=O)[C@H](CC(N)=O)NC(=O)[C@H](CO)NC(=O)[C@H](CO)NC(=O)[C@H](Cc1c[nH]cn1)NC(=O)[C@@H](NC(=O)[C@H](CC(C)C)NC(=O)[C@H](Cc1ccccc1)NC(=O)[C@H](CC(N)=O)NC(=O)[C@H](C)NC(=O)[C@H](CC(C)C)NC(=O)[C@H](CCCNC(=N)N)NC(=O)[C@H](CCC(N)=O)NC(=O)[C@@H](NC(=O)[C@H](C)NC(=O)[C@@H]1CSSC[C@H](NC(=O)[C@@H](N)CCCCN)C(=O)N[C@@H](CC(N)=O)C(=O)N[C@@H]([C@@H](C)O)C(=O)N[C@@H](C)C(=O)N[C@@H]([C@@H](C)O)C(=O)N1)[C@@H](C)O)C(C)C)C(=O)N[C@@H](CC(C)C)C(=O)N1CCC[C@H]1C(=O)N1CCC[C@H]1C(=O)N[C@H](C(=O)N[C@@H](CC(N)=O)C(=O)N[C@H](C(=O)NCC(=O)N[C@@H](CO)C(=O)N[C@@H](CC(N)=O)C(=O)N[C@H](C(=O)N[C@@H](Cc1ccc(O)cc1)C(N)=O)[C@@H](C)O)C(C)C)[C@@H](C)O [pramlintide] | did not affect | 0.985 | 0.537 | 0.020 | 0.005 | 0.041 | no effect | ⅔ |  |  |  |  |  | 
2 | human insulin: regular human hormone with 21 amino acid A chain (SEQ ID NO:2) and 30 amino acid B chain (SEQ ID NO:3) |  |  |  |  |  |  |  |  | 40 | rapidly degrades | unacceptable degradation | 1-2 % per month | 15 to 60 | 5 to 9
